In patent publication US11040033B2 (Gilead Sciences, Inc., priority 2017, dated 2021):

Molecular target: T1, IDO1 (Homo sapiens, UniProt P14902)
T1 construct: HeLa cells were treated with a test compound in the presence of IFNγ, which induces IDO1 expression; endogenous in cells; host or cells: H1-HeLa cells (ATCC #CRL-1958), induced with IFNγ
Test: Cell-based (HeLa) assay for measurement of IDO1 inhibition (kynurenine levels in supernatant after IFNγ induction)
Conditions: H1-HeLa cells, IFNγ-induced IDO1, 48 hour incubation, kynurenine absorbance at 480 nm; geometric mean of a minimum of four determinations
Protocol: To measure IDO1 inhibition in tissue culture, HeLa cells were treated with a test compound in the presence of IFNγ, which induces IDO1 expression. Following incubation, cell supernatants were assayed for kynurenine levels, an indicator of IDO1 activity.
H1-HeLa cells (ATCC #CRL-1958) were seeded in 384-well plates (Greiner #82051-282) at a volume […] (Corning #15-018-CM) supplemented with 10% FBS (Corning #35-011-CV) and 1% P/S/G (Corning #30-009-CL) at a density of 1,250 cells/well and incubated overnight at 37° C., 5% CO2/100% humidity. The following day, the test compounds were added in DMSO (0.5% final) at various concentrations, and IDO1 was inducibly expressed by the addition of 50 uL/well of 50 ng/mL of INFγ(Peprotech #300-02) in cell plating media. As a positive control, 50 uL of the cell plating media without IFNγ was added to several wells. Following a 48 hour incubation, the plates were spun down at 1,200 RPM for 5 min at 10° C. 65 μL/well of the supernatant was then transferred to new 384-well plates (Thermo #262160) that contained 10 uL/well of 30% TCA (Sigma #T0699), and the plates were sealed and incubated at 60° C. for 30 min. The plates were then centrifuged for 15 min at 2,000 RPM at 10° C. 40 μL/well of the supernatant was transferred to new 384-well plates (Thermo #262160) and was reacted with 40 μL/well of 2% (w/v) p-dimethylaminobenzaldehyde (Sigma #156417) in glacial acetic acid (Sigma #A6283). The reaction was incubated at room temperature for 10 min and absorbance at 480 nm was read using a PerkinElmer Envision plate reader.
Data in Table 1 were normalized based on positive (−IFNγ) and negative (+IFNγ) controls and EC50 values were calculated from the fit of the dose-response curves to a four-parameter equation. All EC50 values represent geometric mean values of a minimum of four determinations. These assays generally produced results within 2-fold of the reported mean.

T1 sequence (P14902 whole entry): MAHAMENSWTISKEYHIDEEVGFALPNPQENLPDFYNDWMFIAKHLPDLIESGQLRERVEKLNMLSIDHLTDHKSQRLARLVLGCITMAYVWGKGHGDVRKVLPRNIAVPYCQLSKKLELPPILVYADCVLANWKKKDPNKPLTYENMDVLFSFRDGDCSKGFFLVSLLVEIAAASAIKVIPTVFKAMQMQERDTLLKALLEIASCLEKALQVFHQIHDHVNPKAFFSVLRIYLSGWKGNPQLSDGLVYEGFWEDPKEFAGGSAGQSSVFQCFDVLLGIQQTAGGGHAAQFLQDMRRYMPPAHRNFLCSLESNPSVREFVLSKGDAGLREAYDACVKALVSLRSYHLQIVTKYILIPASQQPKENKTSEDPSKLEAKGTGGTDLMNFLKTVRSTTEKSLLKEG

Compound | EC50 [nM]
Cc1ncc(-c2cccn3c(-c4cccc(F)c4F)ncc23)cc1C(=O)Nc1ccccc1 [Example 66, 5-(3-(2,3-difluorophenyl)imidazo[1,5-a]pyridin-8-yl)-2-methyl-N-phenylnicotinamide] | 15.3
Cc1ncc(-c2cccn3c(-c4cccc(F)c4F)ncc23)cc1C(=O)Nc1ccc(OC(F)F)cc1 [Example 67, N-(4-(difluoromethoxy)phenyl)-5-(3-(2,3-difluorophenyl)imidazo[1,5-a]pyridin-8-yl)-2-methylnicotinamide] | 79.5
Cc1ncc(-c2cccn3c(-c4cccc(F)c4F)ncc23)cc1C(=O)Nc1ccc(F)c(F)c1 [Example 68] | 101
Cc1ncc(-c2cccn3c(-c4cccc(F)c4F)ncc23)cc1C(=O)Nc1ccncc1 [Example 69, 5-(3-(2,3-difluorophenyl)imidazo[1,5-a]pyridin-8-yl)-2-methyl-N-(pyridin-4-yl)nicotinamide] | 57.6
O=C(Nc1ccc(F)cc1)c1cc(-c2cccn3c(-c4cccc(F)c4F)ncc23)ccc1Cl [Example 70, 2-chloro-5-(3-(2,3-difluorophenyl)imidazo[1,5-a]pyridin-8-yl)-N-(4-fluorophenyl)benzamide] | 12.2
Cc1cc(NC(=O)c2cc(-c3cccn4c(-c5cccc(F)c5F)ncc34)cnc2C)ccn1 [Example 71, 5-(3-(2,3-difluorophenyl)imidazo[1,5-a]pyridin-8-yl)-2-methyl-N-(2-methylpyridin-4-yl)nicotinamide] | 656
Cc1ncc(-c2cccn3c(-c4cccc(F)c4F)ncc23)cc1C(=O)Nc1cccc(OC(F)(F)F)c1 [Example 72, 5-(3-(2,3-difluorophenyl)imidazo[1,5-a]pyridin-8-yl)-2-methyl-N-(3-(trifluoromethoxy)phenyl)nicotinamide] | 380
[2H]c1c([2H])c(NC(=O)c2cc(-c3cccn4c(-c5cccc(F)c5F)ncc34)cnc2C)c([2H])c([2H])c1F [Example 73, 5-(3-(2,3-difluorophenyl)imidazo[1,5-a]pyridin-8-yl)-N-(4-fluorophenyl-2,3,5,6-d4)-2-methylnicotinamide] | 23.9
Cc1ncc(-c2cccn3c(C4CCCC4)ncc23)cc1C(=O)Nc1ccc(F)cc1 [Example 74, 5-(3-cyclopentylimidazo[1,5-a]pyridin-8-yl)-N-(4-fluorophenyl)-2-methylnicotinamide] | 460
Cc1ncc(-c2cccn3c(C4CCOCC4)ncc23)cc1C(=O)Nc1ccc(F)cc1 [Example 75, N-(4-fluorophenyl)-2-methyl-5-(3-(tetrahydro-2H-pyran-4-yl)imidazo[1,5-a]pyridin-8-yl)nicotinamide] | 591
Cc1ccn2c(-c3cccc(F)c3F)ncc2c1-c1cnc(C)c(C(=O)Nc2ccc(F)cc2)c1 [Example 77, 5-(3-(2,3-difluorophenyl)-7-methylimidazo[1,5-a]pyridin-8-yl)-N-(4-fluorophenyl)-2-methylnicotinamide] | 730
Cc1cc(-c2cnc(C)c(C(=O)Nc3ccc(F)cc3)c2)c2cnc(-c3cccc(F)c3F)n2c1 [Example 78, 5-(3-(2,3-difluorophenyl)-6-methylimidazo[1,5-a]pyridin-8-yl)-N-(4-fluorophenyl)-2-methylnicotinamide] | 895
Cc1ncc(-c2cccn3c(-c4cccc(F)c4F)nc(Cl)c23)cc1C(=O)Nc1ccc(F)cc1 [Example 79, 5-(1-chloro-3-(2,3-difluorophenyl)imidazo[1,5-a]pyridin-8-yl)-N-(4-fluorophenyl)-2-methylnicotinamide] | 118
Cc1ncc(-c2cccn3c(-c4ccccc4Cl)ncc23)cc1C(=O)Nc1ccc(F)cc1 [Example 80, 5-(3-(2-chlorophenyl)imidazo[1,5-a]pyridin-8-yl)-N-(4-fluorophenyl)-2-methylnicotinamide] | 19.3
Cc1ncc(-c2cccn3c(-c4cccc(Cl)c4)ncc23)cc1C(=O)Nc1ccc(F)cc1 [Example 81, 5-(3-(3-chlorophenyl)imidazo[1,5-a]pyridin-8-yl)-N-(4-fluorophenyl)-2-methylnicotinamide] | 235
O=C(Nc1ccc(F)cc1)c1cc(-c2cccn3c(-c4cccc(F)c4F)ncc23)cnc1C1CC1 [Example 82, 2-cyclopropyl-5-(3-(2,3-difluorophenyl)imidazo[1,5-a]pyridin-8-yl)-N-(4-fluorophenyl)nicotinamide] | 17.5
O=C(Nc1ccc(F)cc1)c1cccc(-c2cccn3c(-c4cccc(F)c4F)ncc23)n1 [Example 83, 6-(3-(2,3-difluorophenyl)imidazo[1,5-a]pyridin-8-yl)-N-(4-fluorophenyl)picolinamide] | 207

Compound | EC50 [nM]
Cc1c(F)cc(-c2cccn3c(-c4cccc(F)c4F)ncc23)cc1C(=O)Nc1ccc(F)cc1 [Example 84] | 75.3
O=C(Nc1ccc(F)cc1)c1nc(-c2cccn3c(-c4cccc(F)c4F)ncc23)ccc1Cl [Example 85] | 52
Cc1ncc(-c2cccn3c(-c4cccc(Cl)c4Cl)ncc23)cc1C(=O)Nc1ccc(F)cc1 [Example 86, 5-(3-(2,3-dichlorophenyl)imidazo[1,5-a]pyridin-8-yl)-N-(4-fluorophenyl)-2-methylnicotinamide] | 30.8
Cc1ncc(-c2cccn3c(-c4cccc(F)c4Cl)ncc23)cc1C(=O)Nc1ccc(F)cc1 [Example 87, 5-(3-(2-chloro-3-fluorophenyl)imidazo[1,5-a]pyridin-8-yl)-N-(4-fluorophenyl)-2-methylnicotinamide] | 13.3
Cc1ncc(-c2cccn3c(-c4cccc(Cl)c4F)ncc23)cc1C(=O)Nc1ccc(F)cc1 [Example 88] | 49.5
Cc1ncc(-c2cccn3c(-c4ccc(F)cc4F)ncc23)cc1C(=O)Nc1ccc(F)cc1 [Example 89, 5-(3-(2,4-difluorophenyl)imidazo[1,5-a]pyridin-8-yl)-N-(4-fluorophenyl)-2-methylnicotinamide] | 30.6
Cc1ncc(-c2cccn3c(C4CC4)ncc23)cc1C(=O)Nc1ccc(F)cc1 [Example 90, 5-(3-cyclopropylimidazo[1,5-a]pyridin-8-yl)-N-(4-fluorophenyl)-2-methylnicotinamide] | 2940
Cc1ncc(-c2cccn3c(C4CCC4)ncc23)cc1C(=O)Nc1ccc(F)cc1 [Example 91, 5-(3-cyclobutylimidazo[1,5-a]pyridin-8-yl)-N-(4-fluorophenyl)-2-methylnicotinamide] | 888
Cc1ncc(-c2cccn3c(-c4cccc(F)c4F)nc(Br)c23)cc1C(=O)Nc1ccc(F)cc1 [Example 92, 5-(1-bromo-3-(2,3-difluorophenyl)imidazo[1,5-a]pyridin-8-yl)-N-(4-fluorophenyl)-2-methylnicotinamide] | 273
Cc1ncc(-c2cccn3c(C4CCCCC4)ncc23)cc1C(=O)Nc1ccc(F)cc1 [Example 93, 5-(3-cyclohexylimidazo[1,5-a]pyridin-8-yl)-N-(4-fluorophenyl)-2-methylnicotinamide] | 250
O=C(Nc1ccc(F)cc1)c1cc(-c2cccn3c(-c4cccc(F)c4F)ncc23)cnc1N1CCC1 [Example 94, 2-(azetidin-1-yl)-5-(3-(2,3-difluorophenyl)imidazo[1,5-a]pyridin-8-yl)-N-(4-fluorophenyl)nicotinamide] | 124
Fc1ccc2[nH]c(-c3cc(-c4cccn5c(-c6cccc(F)c6F)ncc45)ccc3C(F)(F)F)nc2c1 [Example 95, 2-(5-(3-(2,3-difluorophenyl)imidazo[1,5-a]pyridin-8-yl)-2-(trifluoromethyl)phenyl)-5-fluoro-1H-benzo[d]imidazole] | 24.3
Fc1ccc2[nH]c(-c3cc(-c4cccn5c(-c6cccc(F)c6F)ncc45)ccc3Cl)nc2c1 [Example 96, 2-(2-chloro-5-(3-(2,3-difluorophenyl)imidazo[1,5-a]pyridin-8-yl)phenyl)-5-fluoro-1H-benzo[d]imidazole] | 67.2
Cc1ncc(-c2cccn3c(-c4cccc(F)c4F)ncc23)cc1-c1nc2cc(F)ccc2[nH]1 [Example 97, 2-(5-(3-(2,3-difluorophenyl)imidazo[1,5-a]pyridin-8-yl)-2-methylpyridin-3-yl)-5-fluoro-1H-benzo[d]imidazole] | 64.9
Fc1ccc2[nH]c(-c3cc(-c4cccn5c(-c6cccc(F)c6F)ncc45)cnc3C(F)(F)F)nc2c1 [Example 98, 2-(5-(3-(2,3-difluorophenyl)imidazo[1,5-a]pyridin-8-yl)-2-(trifluoromethyl)pyridin-3-yl)-5-fluoro-1H-benzo[d]imidazole] | 36.6
Cc1ncc(-c2cccn3c(-c4cccc(F)c4F)ncc23)cc1-c1nc2ccccc2[nH]1 [Example 99, 2-(5-(3-(2,3-difluorophenyl)imidazo[1,5-a]pyridin-8-yl)-2-methylpyridin-3-yl)-1H-benzo[d]imidazole] | 59.9
